System: HCT116 cells
Test: Whole transcriptome microarray of gene re-expression in drug-treated CRC cells (11 hypermethylated guide genes)
Type: cell-based, human
Experimental: Cell culture and treatment. HCT116 cells and isogenic genetic knockout derivatives were maintained as previously described (14). For drug treatments, log phase CRC cells were cultured in McCoys 5A media (Invitrogen) containing 10% BCS and 1× penicillin/streptomycin with 5 μM 5aza-deoxycytidine (DAC) (Sigma; stock solution: 1 mM in PBS) for 96 hours, replacing media and DAC every 24 hours. Cell treatment with 300 nM Trichostatin A (Sigma; stock solution: 1.5 mM dissolved in ethanol) was performed for 18 hours. Control cells underwent mock treatment in parallel with addition of equal volume of PBS or ethanol without drugs.
Microarray analysis. Total RNA was harvested from log phase cells using Triazol (Invitrogen) and the RNeasy kit (Qiagen) according to the manufacturers instructions, including a DNAase digestion step. RNA was quantified using the Nanoprop ND-100 followed by quality assessment with 2100 Bioanalyzer (Agilent Technologies). RNA concentrations for individual samples were greater than 200 ng/ul, with 28s/18s ratios greater than 2.2 and RNA integrity of 10 (10 scored as the highest). Sample amplification and labeling procedures were carried out using the Low RNA Input Fluorescent Linear Amplification Kit (Agilent Technologies) according to the manufacturers instructions. The labeled cRNA was purified using the RNeasy mini kit (Qiagen) and quantified. RNA spike-in controls (Agilent Technologies) were added to RNA samples before amplification. 0.75 microgram of samples labeled with Cy3 or Cy5 were mixed with control targets (Agilent Technologies), assembled on Oligo Microarray, hybridized, and processed according to the Agilent microarray protocol. Scanning was performed with the Agilent G2565BA microarray scanner using settings recommended by Agilent Technologies.
Data analysis. All arrays were subject to quality checks recommended by the manufacturer. […] The log ratio of red signal to green signal was calculated after background-subtraction and LoEss normalization as implemented in the limma package from Bioconductor (25,26). […]

Compound | response of guide gene expression to TSA (300 nM Trichostatin A for 18 hours, zone = expression increase <1.4 fold) | guide genes increased 1.3 fold or more (total) (5 μM DAC for 96 hours, 11 known hypermethylated, silenced guide genes) [%] | guide genes increased 2-fold or more (5 μM DAC for 96 hours, 11 known hypermethylated, silenced guide genes (5 of 11)) [%]
CC(/C=C/C(=O)NO)=C\[C@@H](C)C(=O)c1ccc(N(C)C)cc1 [TSA, trichostatin A] | All tested genes remained within the TSA non-responsive zone | – | –
Nc1ncn([C@H]2C[C@H](O)[C@@H](CO)O2)c(=O)n1 [DAC, 5-aza-2′-deoxycytidine] | – | 73 | 45

Reference: patent US20080221056A1, “Early Detection and Prognosis of Colon Cancers” (JOHNS HOPKINS UNIVERSITY, priority 2007, published 2008)
